# Activity calls are given as the source filed them. How the calls were made is not given here.
# Target: RanGTP-importin-beta complex (human Ran / KPNB1)
# Experiment: Ran–importin-beta interaction inhibitors, confirmation, biochemical, FRET, CFP/YFP, cell-free homogeneous (AID 2823)
# Conditions: CFP-Ran/YFP-importin-beta FRET ratio
row,SMILES,IC50
1,COCCOC(=O)C1=C(C)OC(N)=C(C(=O)OC)C12C(=O)Nc1ccccc12 (stereo not given),> 50 µM (inactive)
2,CCOC(=O)C1CCN(c2cc(=O)n(C3CCCCC3)c(=O)[nH]2)CC1,> 50 µM (inactive)
3,COC(=O)C1=CN(Cc2cccs2)C=C(C(=O)OC)C1c1ccc(OC)cc1OC,6.08 µM
4,COc1ccc2cc(C#N)c(N3CCN(C(=O)c4ccccc4C)CC3)nc2c1,> 50 µM (inactive)
5,O=C(COC(=O)c1cccnc1Nc1ccccc1F)NCCN1C(=O)CSC1=O,> 50 µM (inactive)
6,COc1cc(/C=N/NC(=O)c2cc(C)oc2C)ccc1O,> 50 µM (inactive)
7,Cc1sc2ncn(CC(=O)NCCCC(=O)N3CCN(Cc4ccc5c(c4)OCO5)CC3)c(=O)c2c1C,> 50 µM (inactive)
8,Cc1ccc(N2NC(=O)/C(=C\c3cc4c(cc3[N+](=O)[O-])OCO4)C2=O)cc1C,> 50 µM (inactive)
9,COCCCn1c(N)c(C(=O)OC(C)COC)c2nc3ccccc3nc21 (stereo not given),24.8 µM
10,Cc1ccc(S(=O)(=O)/C(C#N)=C/c2c(N3CCC(C(N)=O)CC3)nc3ccccn3c2=O)cc1,> 50 µM (inactive)
11,CC(C)OC(=O)c1c(N)n(CC2CCCO2)c2nc3ccccc3nc12 (stereo not given),18 µM
12,Nc1nc(CSc2nc3ccccc3s2)nc(N2CCCCC2)n1,> 50 µM (inactive)
13,CNC(=O)c1c(C)[nH]c(=S)c(C#N)c1-c1ccco1,> 50 µM (inactive)
14,Cc1ccc(-n2c(O)c(/C=N/N3CCCCCC3)c(=O)[nH]c2=O)cc1C,> 50 µM (inactive)
15,CCOc1ccc(C)cc1S(=O)(=O)Nc1ccc(Cl)cn1,> 50 µM (inactive)
16,N#C/C(=C\N1CCN(Cc2ccc3c(c2)OCO3)CC1)c1nc2ccccc2s1,> 50 µM (inactive)
17,Oc1c(C=Nc2ccccc2)sc2ccccc12,27.6 µM
18,Cc1ccc(C(=O)NNC2CC(=O)N(c3ccc4c(c3)OCCO4)C2=O)cc1 (stereo not given),> 50 µM (inactive)
19,CC1(C)CC(=O)CC(=Nc2ccc3[nH]c(=O)[nH]c3c2)C1,> 50 µM (inactive)
20,Cc1ccccc1-n1cnc2cc(NCc3cccs3)ccc21,> 50 µM (inactive)
21,CN(C)c1oc(-c2cccs2)nc1C#N,> 50 µM (inactive)
22,COc1ccc(C(=O)/C=C/Nc2cccc(C)n2)cc1OC,22.8 µM
23,CC(=O)N1CCC(N(CCN2CCOCC2)C(=O)Nc2ccc(Cl)c(Cl)c2)CC1,> 50 µM (inactive)
24,O=C(CCCO)NNc1c2ccccc2nc2ccccc12,> 50 µM (inactive)
25,OCCNCc1cccc(OCc2ccccc2Cl)c1,> 50 µM (inactive)

row,SMILES,IC50
1,O=C(NCC1CCN(Cc2ccccc2Cl)CC1)Nc1ccccc1F,> 50 µM (inactive)
2,CCOC(=O)C1=C(C)NC2=C(C(=O)C(C(=O)OCC)C(c3cccc(OC)c3)C2)C1c1ccccn1 (stereo not given),22.2 µM
3,COc1ccccc1C(=O)c1cc2ccc(O)cc2oc1=O,5.1 µM
4,CCOC(=O)c1c(NC(=O)CSc2nnc3c(n2)[nH]c2ccccc23)sc2c1CCN(C)C2,> 50 µM (inactive)
5,O=C(NNc1c2ccccc2nc2ccccc12)c1ccc(O)cc1O,> 50 µM (inactive)
6,Cc1ccc(CNC(=O)c2cccnc2)cc1,> 50 µM (inactive)
7,O=C(Cn1c2ccccc2c(=O)c2ccccc21)N/N=C/c1ccc(N2CCCC2)c([N+](=O)[O-])c1,> 50 µM (inactive)
8,COc1ccc(C2NCCc3c2[nH]c2ccccc32)cc1COc1ccc(F)cc1 (stereo not given),> 50 µM (inactive)
9,C=CCOc1c(Br)cc(CNc2ccc(NC(=O)C(C)C)c(OC)c2)cc1OC,> 50 µM (inactive)
10,CC(C)C1C2=C(CC(C)(C)CC2=O)ON1c1ccccc1 (stereo not given),> 50 µM (inactive)
11,CC(C)NC(=O)NC(=O)COC(=O)c1ccccc1O,> 50 µM (inactive)
12,Cc1cc(C)c[n+](-c2nc3ccccc3nc2[N-]S(=O)(=O)c2ccc(Br)s2)c1,3.68 µM
13,COc1ccc(-c2csc3ncnc(N4CCN(c5ccc(OC)cc5)CC4)c23)cc1,> 50 µM (inactive)
14,O=C(NC1=NCCS1)c1cc(-c2cccnc2)nc2ccccc12,> 50 µM (inactive)
15,COc1ccc(C(=O)c2cc3ccc(O)cc3oc2=O)cc1,16.4 µM
16,Oc1nc(Nc2ccc(F)cc2)sc1/C=C1\C=Nc2ccccc21,> 50 µM (inactive)
17,COc1ccc2cc(-c3nc4ccccc4n3C)c(=O)oc2c1,19.1 µM
18,O=C(CN1CCN(C/C=C/c2ccccc2)CC1)NC(=O)NC1CCCCC1,> 50 µM (inactive)
19,Oc1ccc(/C=N/Nc2cc(N3CCOCC3)nc(N3CCOCC3)n2)cc1,> 50 µM (inactive)
20,COc1cc(C(=O)NCCCNc2nc3cc(C)cc(C)c3cc2C#N)cc(OC)c1OC,29.8 µM
21,COc1ccc(CCNC(=O)c2cc3c(=O)n4ccccc4nc3n(C3CCCCC3)c2=N)cc1OC,23.2 µM
22,N#Cc1cc2c(ccc3ccccc32)oc1=O,> 50 µM (inactive)
23,Cc1ccc2nc(N3CCN(C(=O)c4ccc(F)cc4)CC3)c(C#N)cc2c1,23.3 µM
24,c1cncc(Nc2c3ccccc3nc3ccccc23)c1,> 50 µM (inactive)
25,CC1Cc2cc(S(=O)(=O)NCc3ccccc3)ccc2N1C(=O)C1CC1 (stereo not given),> 50 µM (inactive)

row,SMILES,IC50
1,CCOc1ccc(C2C(C(=O)OC)=CN(CCOC)C=C2C(=O)OC)cc1,13.1 µM
2,CC1(C)CCC(=O)C=C1Nc1ccc(F)c(Cl)c1,> 50 µM (inactive)
3,COCCNc1cc(C)nc2cc(-c3ccc(C)cc3)nn12,5.2 µM
4,CCOc1ccc(N=Cc2c(O)n(-c3cccc(C)n3)c(=O)c3ccccc23)cc1,> 26 µM (inactive)
5,CCCC(C)c1nnc(NC(=O)C2CC(=O)N(c3ccc(OCC)cc3)C2)s1 (stereo not given),> 50 µM (inactive)
6,CCOc1ccc2nc(SCC(=O)NCc3ccc4c(c3)OCO4)[nH]c2c1,> 50 µM (inactive)
7,C=CCn1c(O)c(N=NC(=S)Nc2ccccc2F)c2cc(S(=O)(=O)N3CCOCC3)ccc21,> 50 µM (inactive)
8,CC(OC(=O)CNC(=O)c1cccc(F)c1)C(=O)NC1CCCCC1C (stereo not given),> 50 µM (inactive)
9,CCCCCN(C(=O)CN(C)Cc1ccc(OC)cc1OC)c1c(N)n(CCCC)c(=O)[nH]c1=O,> 50 µM (inactive)
10,c1ccc(Nc2nc3ccccc3n3nnnc23)cc1,27.7 µM
11,Cc1ccc(Cn2ccc(NC(=O)c3noc4c3CCc3ccccc3-4)n2)cc1,> 50 µM (inactive)
12,O=C(Cc1cc(=O)oc2cc(O)ccc12)N[C@@H](Cc1c[nH]c2ccccc12)C(=O)O,> 50 µM (inactive)
13,O=c1[nH]c(=O)n(-c2cccc3ccccc23)c(O)c1/C=N/N1CCCCCC1,> 50 µM (inactive)
14,CC12OC1C1(O)CCCC1=CC2=O (stereo not given),> 50 µM (inactive)
15,COc1cc(OC)cc(C(=O)NCCNc2nc3cc(C)cc(C)c3cc2C#N)c1,8.59 µM
16,Nc1nonc1-n1nnc(C(=O)N/N=C/c2ccccc2)c1CSc1ccc(Cl)cc1,> 50 µM (inactive)
17,Cc1cc2oc3cc(NCCC4CCCN4C)ccc3c(=O)c2cc1C (stereo not given),8.12 µM
18,CCc1cc2c(COC(=O)c3c(C)noc3C)cc(=O)oc2cc1O,> 50 µM (inactive)
19,CCN1/C(=C2\SC(=S)N(Cc3ccccc3)C2=O)Sc2ccccc21,> 50 µM (inactive)
20,Cc1ccc2cc(C#N)c(N3CCCC3)nc2c1C,> 50 µM (inactive)
21,COCCCNC(=O)/C(C#N)=C/c1c(N2CCN(c3ccccc3)CC2)nc2ccccn2c1=O,25.9 µM
22,Cc1cc(NCCN(C)C)n2nc(-c3cccs3)cc2n1,28.8 µM
23,CC1(C)CC(=O)C=C(Nc2ccccc2O)C1,> 50 µM (inactive)
24,Cc1ccc(S(=O)(=O)NC(C(=O)Oc2ccc3ccc(=O)oc3c2)c2ccccc2)cc1 (stereo not given),24.8 µM
25,CN(C)c1ccc(/C=C(\NC(=O)c2ccccc2)C(=O)NCc2ccncc2)cc1,> 50 µM (inactive)

row,SMILES,IC50
1,CCOc1ccc(N2C(=O)C3C4C=CC(CC4)C3C2=O)c([N+](=O)[O-])c1 (stereo not given),> 50 µM (inactive)
2,CCCc1cc(=O)oc2c(CN3CCN(C)CC3)c(O)c(Cl)cc12,28.4 µM
3,CN1CCN(c2ccc(S(=O)(=O)N3CCCCC3)cc2NC(=O)Cc2ccc(Cl)cc2)CC1,> 50 µM (inactive)
4,CCOC(=O)c1c(N)n(CCOC(=O)c2cccs2)c2nc3ccccc3nc12,39.3 µM
5,CCN(CC)S(=O)(=O)c1cc(C(=O)Nc2ccccc2[N+](=O)[O-])ccc1Cl,> 50 µM (inactive)
6,Cc1ccc(-c2c(C#N)c(N)nc3c2CCCC3)s1,25.7 µM
7,Nc1c(C(=O)OC2CCCCC2)c2nc3ccccc3nc2n1CC1CCCO1 (stereo not given),27.1 µM
8,CC(=O)[C@@H]1[C@@H](C)N(Cc2ccccc2)C(=O)N[C@H]1c1cccc(C(F)(F)F)c1,> 50 µM (inactive)
9,COc1ccccc1CNC(=O)COC(=O)Cc1ccc(Cl)cc1,> 50 µM (inactive)
10,Cn1c(=O)cc(OCCCC(=O)NCc2ccccn2)c2ccccc21,> 50 µM (inactive)
11,Cc1cccc(C)c1NC(=O)C1c2cccc[n+]2CC(=O)N1Cc1cccs1 (stereo not given),> 50 µM (inactive)
12,CCc1ccc(N2C(=O)NC(=O)/C(=C\c3cc(C)n(-c4cc(C(=O)O)cc(C(=O)O)c4)c3C)C2=O)cc1,> 50 µM (inactive)
13,COc1ccc2c(c1)O/C(=C\c1ccco1)C2=O,18.3 µM
14,Nc1nc(N2CCOCC2)nc(N(c2ccccc2)c2ccccc2)n1,> 50 µM (inactive)
15,Cc1cccc(Nc2nnc(SC/C(O)=C(\C#N)c3nc4ccccc4[nH]3)s2)c1C,> 50 µM (inactive)
16,COc1ccc(NS(=O)(=O)c2cc(NC(=O)c3cccs3)ccc2N2CCOCC2)cc1,> 50 µM (inactive)
17,COc1cc(-c2nc3cnccn3c2Nc2ccc(C(C)C)cc2)ccc1O,> 50 µM (inactive)
18,O=C1NC(=O)N(Cc2ccccc2)C(=O)/C1=C/N1CCCc2ccccc21,> 50 µM (inactive)
19,COc1ccccc1NC(=O)CN1CCN(CC(=O)Nc2ccc(C)c(F)c2)CC1,> 50 µM (inactive)
20,O=C(Nc1cccc(OC(=O)N2CCCCC2)c1)N1CCCCC1,> 50 µM (inactive)
21,O=[N+]([O-])c1cc(CN2CCCC2)ccc1Sc1ccc(Cl)cc1,> 50 µM (inactive)
22,CC1Cc2cc(/C(O)=C3/C(=O)C(=O)N(Cc4ccncc4)C3c3ccc(N(C)C)cc3)ccc2O1 (stereo not given),> 50 µM (inactive)
23,COc1ccc(Oc2nc3c(C)cccn3c(=O)c2/C=C(\C#N)C(N)=O)cc1,9.6 µM
24,Cc1ccc(Nc2nc(N)nc(CC#N)n2)cc1,> 50 µM (inactive)
25,CC(C)CN(Cc1c(O)ccc2ccccc12)CC(C)C,> 50 µM (inactive)

# Reference: PubChem BioAssay AID2823 (Broad Institute, 2010)
